We go through eight compounds from patent US10604474B2, “Crystalline form of gamma-aminobutyric acid and preparation method thereof” (NANTONG LICHENG BIOLOGICAL ENGINEERING CO., LTD, priority 2016, dated 2020).

The structures appear in SMILES notation.

Holding throughout (type): physicochemical
One data set in a line: Bulk density.
The nature of data set [1]: Angle of repose (flowability) measured with a 1050/70 type goniometer. The following applies: slightly ground, smeared on horizontal quartz plate; smaller than 40° meets flowability requirements. The procedure:
It is generally believed that the smaller the angle of repose, the better the flowability. When the angle of repose is smaller than 40°, flowability requirements in the production process can be met.

The nature of data set [2]: Moisture absorption and agglomeration.
A short description of data set [3]: Scanning Electron Microscopy (SEM) characterization of crystals.

In the data set “Bulk density”, `NCCCC(=O)O` [CN101928736A, CN103509831A, CN104531795A, CN102242161A] [γ-aminobutyric acid, reference compound] registered a Bulk density of 0.65 g/mL. The “Angle of repose (flowability)” value in data set [1] was 50°. The Agglomeration entry in data set [2] was “Serious agglomeration”.
Turning to `NCCCC(=O)O` [Embodiment 1, γ-aminobutyric acid], the Bulk density in the data set “Bulk density” came out at 0.8 g/mL. Moreover, the “Angle of repose (flowability)” value in data set [1] turned out to be 35 °. Besides, the “Susceptibility to absorbing moisture and agglomeration” value (“Susceptibility” for short) in data set [2] is “not susceptible to absorbing moisture and agglomeration”. Further, the Particle size distribution result in data set [3] was “uniform”.
On to `NCCCC(=O)O` [Embodiment 2, γ-aminobutyric acid], for which the Bulk density in the data set “Bulk density” turned out to be 0.7 g/mL. In addition, in data set [1], the “Angle of repose (flowability)” value came out at 37 °. Besides, in data set [2], the “Susceptibility” value is “not susceptible to absorbing moisture and agglomeration”. In data set [3], the Particle size distribution entry was “uniform”.
Consider `NCCCC(=O)O` [Embodiment 3, γ-aminobutyric acid], for which the Bulk density in the data set “Bulk density” is listed as 0.85 g/mL. For the same compound, the “Angle of repose (flowability)” value in data set [1] is listed as 34 °. Also, the “Susceptibility” value in data set [2] was “not susceptible to absorbing moisture and agglomeration”. Besides, the Particle size distribution result in data set [3] is “uniform”.
`NCCCC(=O)O` [Embodiment 4, γ-aminobutyric acid]: in the data set “Bulk density”, the Bulk density is 0.75 g/mL. Also, the “Angle of repose (flowability)” value in data set [1] worked out at 36 °. The “Susceptibility” value in data set [2] is “not susceptible to absorbing moisture and agglomeration”. The Particle size distribution entry in data set [3] was “uniform”.
The compound `NCCCC(=O)O` [Embodiment 5, γ-aminobutyric acid] displayed a Bulk density in the data set “Bulk density” of 0.7 g/mL. The “Angle of repose (flowability)” value in data set [1] stood at 37 °. Moreover, the “Susceptibility” value in data set [2] was “not susceptible to absorbing moisture and agglomeration”. The Particle size distribution entry in data set [3] is listed as “uniform”.
As for `NCCCC(=O)O` [Embodiment 6, γ-aminobutyric acid], the Bulk density in “Bulk density” came to 0.8 g/mL. Further, the “Angle of repose (flowability)” value in data set [1] was 35 °. Also, the “Susceptibility” value in data set [2] was “not susceptible to absorbing moisture and agglomeration”. Also, the Particle size distribution result in data set [3] is given as “uniform”.
Turning to `NCCCC(=O)O` [Present invention, γ-aminobutyric acid], the Bulk density in “Bulk density” is on record as 0.80 g/mL. In data set [1], the “Angle of repose (flowability)” value was 35°. Besides, the Agglomeration entry in data set [2] is “No agglomeration”.
